Legend:
Assay in all cases: In vitro antifungal activity, microbroth dilution MIC
Type in all cases: cell-based
[1] = test system: Candida parapsitosis A. 7330; settings: RPMI-1640, 35° C., 4 to 48 hours, no growth observed
In short: (§1)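 Broth microdilution adapted from NCCLS M27, in RPMI-1640 with 0.165 M MOPS, pH 7.0. Yeast or mould inoculum at 2×10^3 CFU/ml was mixed 1:1 with DMSO-derived compound solutions (200 to 0.10 μg/ml before mixing) and incubated at 35 °C for 4 to 48 h. MIC was the concentration showing no growth.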

Candida albicans C1-2 = settings: RPMI-1640, 35° C., 4 to 48 hours, no growth observed
In short: as §1

[2] = test system: Cryptococcus neoformans A. 34144; settings: RPMI-1640, 35° C., no growth observed
In short: as §1

[3] = test system: Candida albicans IFO. 1385; settings: RPMI-1640, 35° C., 4 to 48 hours, no growth observed
In short: as §1

[4] = test system: Cryptococcus neoformans B. 42419; settings: RPMI-1640, 35° C., 4 to 48 hours, no growth observed
In short: as §1

[5] = test system: Aspergillus furnigatus B. 19119; settings: RPMI-1640, 35° C., no growth observed
In short: as §1

[6] = test system: Aspergillus niger A. 16404; settings: RPMI-1640, 35° C., no growth observed
In short: as §1

Candida krusei K. 11655 = settings: RPMI-1640, 35° C., 4 to 48 hours, no growth observed
In short: as §1

[7] = test system: Cryptococcus neoformans IFM. 40092; settings: RPMI-1640, 35° C., no growth observed
In short: as §1

[8] = test system: Trichophyton mentagrophytes B. 32663; settings: RPMI-1640, 35° C., no growth observed
In short: as §1

[9] = test system: Torulopsis glabrata B. 16205; settings: RPMI-1640, 35° C., 4 to 48 hours, no growth observed
In short: as §1

[10] = test system: Candida albicans A. 10231; settings: RPMI-1640, 35° C., 4 to 48 hours, no growth observed
In short: as §1

[11] = test system: Candida tropicalis A. 13803; settings: RPMI-1640, 35° C., 4 to 48 hours, no growth observed
In short: as §1

[12] = test system: Candida pseudotropicalis K. 11658; settings: RPMI-1640, 35° C., 4 to 48 hours, no growth observed
In short: as §1

[13] = test system: Trichophyton mentagrophytes A. 9129; settings: RPMI-1640, 35° C., no growth observed
In short: as §1

Row | SMILES | Minimal inhibitory concentration(MIC), C. parapsitosis A. 7330 [1] | Minimal inhibitory concentration(MIC), C. albicans C1-2 (Candida albicans C1-2) | Minimal inhibitory concentration(MIC), C. albicans IFO. 1385 [3] | Minimal inhibitory concentration(MIC), Cry. neoformans B. 42419 [4] | Minimal inhibitory concentration(MIC), C. krusei K. 11655 (Candida krusei K. 11655) | Minimal inhibitory concentration(MIC), T. glabrata B. 16205 [9] | Minimal inhibitory concentration(MIC), C. albicans A. 10231 [10] | Minimal inhibitory concentration(MIC), C. tropicalis A. 13803 [11] | Minimal inhibitory concentration(MIC), C. pseudotropicalis K. 11658 [12] | Minimal inhibitory concentration(MIC), Cry. neoformans A. 34144 [2] | Minimal inhibitory concentration(MIC), A furnigatus B. 19119 [5] | Minimal inhibitory concentration(MIC), A. niger A. 16404 [6] | Minimal inhibitory concentration(MIC), Cry. neoformans IFM. 40092 [7] | Minimal inhibitory concentration(MIC), T. mentagrophytes B. 32663 [8] | Minimal inhibitory concentration(MIC), T. mentagrophytes A. 9129 [13] | further results
1 | CCCCc1ccc(C(=C(F)N2CCN(c3ccc(OCC4COC(Cn5ccnc5)(c5ccc(F)cc5F)O4)cc3)CC2)C(F)(F)F)cc1 (mixture of isomers) [Ex. 140] | 1.56 µg/mL | >100 µg/mL | 1.56 µg/mL | 1.56 µg/mL | 3.13 µg/mL | 100 µg/mL | >100 µg/mL | >100 µg/mL | 1.56 µg/mL |  |  |  |  |  |  | Minimal inhibitory concentration(MIC), Cry. neoformans A. 34144 ([2]; 4 to 48 hours): 1.56 µg/mL; Minimal inhibitory concentration(MIC), A furnigatus B. 19119 ([5]; 4 to 48 hours): 50.0 µg/mL; Minimal inhibitory concentration(MIC), A. niger A. 16404 ([6]; 4 to 48 hours): >100 µg/mL; Minimal inhibitory concentration(MIC), Cry. neoformans IFM. 40092 ([7]; 4 to 48 hours): 0.39 µg/mL; Minimal inhibitory concentration(MIC), T. mentagrophytes B. 32663 ([8]; 4 to 48 hours): 0.39 µg/mL; Minimal inhibitory concentration(MIC), T. mentagrophytes A. 9129 ([13]; 4 to 48 hours): 12.5 µg/mL
2 | Cc1cc(C)cc(C(=C(F)N2CCN(c3ccc(OCC4COC(Cn5ccnc5)(c5ccc(F)cc5F)O4)cc3)CC2)C(F)(F)F)c1 (mixture of isomers) [Ex. 141] | 1.56 µg/mL | >100 µg/mL | 0.78 µg/mL | 0.78 µg/mL | 1.56 µg/mL | 100 µg/mL | >100 µg/mL | >100 µg/mL | 3.13 µg/mL | 1.56 µg/mL | 50.0 µg/mL | >100 µg/mL | 0.78 µg/mL | 0.78 µg/mL | 6.25 µg/mL | 
3 | FC(=C(c1ccc(C(F)(F)F)cc1)C(F)(F)F)N1CCN(c2ccc(OCC3COC(Cn4ccnc4)(c4ccc(F)cc4F)O3)cc2)CC1 (mixture of isomers) [Ex. 142] | 3.13 µg/mL | >100 µg/mL | 3.13 µg/mL | 3.13 µg/mL | 6.25 µg/mL | 100 µg/mL | >100 µg/mL | >100 µg/mL | 6.25 µg/mL | 3.13 µg/mL | 50.0 µg/mL | 100 µg/mL | 0.39 µg/mL | 1.56 µg/mL | 12.5 µg/mL | 

From patent publication US6376497B1, “Antifungal azole derivatives having a fluorinated vinyl group and process for preparing same” (Korea Research Institute of Chemical Technology, priority 1999, dated 2002)
